Results on one molecule are retold here after US12679837B2, “Aminopyrimidine compound as CDK2/4/6 triple inhibitor” (CISEN PHARMACEUTICAL CO., LTD, priority 2019, dated 2026).

One data set deals with T1, CDK2/CyclinE1 (Homo sapiens, UniProt P24941).
T1 construct: purchased Promega
Put plainly: CDK2/CyclinE1 kinase activity test (ADP-Glo). Type of data set: biochemical. The note with it: 150 μM ATP, 25° C., 60 minutes; read-out: Enzyme activity data (IC50) CDK2/CyclinE1. How it is done:
Nivo Multilabel Analyzer (PerkinElmer).
Experimental method: Kinase buffer dilution enzyme in the kit, substrate, adenosine triphosphate and inhibitor were used. The compounds to be tested were diluted 5-fold to the 8th concentration with a row gun, that is, from 50 μM to 0.65 nM, the concentration of DMSO was 5%, and a double-replicate well experiment was set up. […] The reaction system was placed at 25° C. and reacted for 60 minutes. After the reaction was complete, 5 μL of ADP-Glo reagent was added to each well, and the reaction was continued at 25° C. for 40 minutes. At the end of the reaction, 10 μL of kinase detection reagent was added to each well. After the reaction was continued at 25° C. for 30 minutes, the chemiluminescence was read by a multi-label analyzer with an integration time of 0.5 seconds.
Using the equation (Sample−Min)/(Max−Min)×100% to convert the original data into inhibition rate, the IC50 value can be obtained by curve fitting with four parameters (obtained by the mode of log(inhibitor) vs. response—Variable slope in GraphPad Prism). Table 1 provides the enzymatic inhibitory activities of the compounds of the present invention on CDK2/CyclinA2, CDK2/CyclinE1, CDK4/CyclinD1, CDK6/CyclinD1, CDK9/CyclinT1.

The target of another data set is T2, CDK6/CyclinD1 (Homo sapiens, UniProt Q00534).
T2 construct: purchased Carna
Put plainly: CDK6/CyclinD1 kinase activity test (LANCE Ultra TR-FRET). Type of data set: biochemical. The settings on record: 250 μM ATP, 25° C., 120 minutes; read-out: Enzyme activity data (IC50) CDK6/cyclinD1. As to the method: Experimental materials: CDK6/CyclinD1 kinase was purchased from Carna, reaction substrate LANCE Ultra ULight™-4E-BP-1 (Thr37146) Peptide and EU-ANTI-P-4EBP1 (THR37/46) were purchased from PerkinElmer. Nivo Multilabel Analyzer (PerkinElmer).
Experimental method: preparation of kinase buffer: The components of the buffer include: 50 mM of hydroxyethylpiperazine […] solution with pH 7.5, 1 mM of EDTA, 10 mM of magnesium chloride, 0.01% lauryl polyoxyethylene ether (Brij-35), 2 mM of enzyme dithiothreitol, kinase buffer dilution enzyme, substrate LANCE Ultra ULight™-4E-BP-1 (Thr37146) Peptide, adenosine triphosphate and inhibitor. […] The reaction system was continued at 25° C. for 120 minutes. After the reaction was complete, a mixture of 5 μL of EDTA and 2× LANCE™ Detection Buffer (1:1) was added to each well, and reacted at 25° C. for 5 minutes, after the reaction was complete, 5 μL of LANCE Ultra Eu-anti-P-4E-BP1(Thr37MS) (4 nM) was added to each well, and reacted at 25° C. for 60 minutes, the reaction signal was detected by Nivo instrument according to the principle of time-resolved fluorescence resonance energy transfer.
(§1) Table 1 provides the enzymatic inhibitory activities of the compounds of the present invention on CDK2/CyclinA2, CDK2/CyclinE1, CDK4/CyclinD1, CDK6/CyclinD1, CDK9/CyclinT1.

In another data set the target is T3, CDK9/CyclinT1 (Homo sapiens, UniProt P50750).
T3 construct: purchased Carna
Put plainly: CDK9/CyclinT1 kinase activity assay (ADP-Glo). Type of data set: biochemical. The settings on record: 100 μM ATP, 25° C., 60 minutes; read-out: Enzyme activity data (IC50) CDK9/CyclinT1. As to the method: Experimental materials: CDK9/CyclinT1 kinase was purchased from Carna, the ADP-Glo detection kit was purchased from Promega, the PKDTide substrate and kinase reaction buffer were purchased from Signalchem. Nivo Multilabel Analyzer (PerkinElmer).
Experimental method: Kinase buffer dilution enzyme in the kit, substrate, adenosine triphosphate and inhibitor were used. […] The reaction system was placed at 25° C. and reacted for 60 minutes. After the reaction was complete, 5 μL of ADP-Glo reagent was added to each well, and the reaction was continued at 25° C. for 40 minutes. At the end of the reaction, 10 μL of kinase detection reagent was added to each well. After the reaction was continued at 25° C. for 30 minutes, the chemiluminescence was read by a multi-label analyzer with an integration time of 0.5 seconds.
as §1

The nature of data set [1]: Pharmacokinetic evaluation in female Balb/c mice. Format: in vivo. The settings on record: mouse, plasma. How it is done: Healthy adult female Balb/c mice used in this study were purchased from Shanghai Lingchang Biotechnology Co., Ltd.
1.11 mg of the compound to be tested was accurately weighed, 109.8 μL of DMSO was added and vortexed for 1 minute, 109.8 μL of solutol was added and vortexed for 1 minute to obtain a clear solution, then 878 μL of water was added and vortexed for 1 minute to obtain the final solution with a final concentration of 1 mg/mL, the dosing vehicle was 10% DMSO+10% solutol+80% water. The solution in the intravenous injection group was filtered with a 2 μm filter before administration.
1.61 mg of the compound to be tested was accurately weighed, 796 μL of 1% HPMC was added, sonicated at 45° C. for 20 minutes, and stirred for 15 minutes to obtain a homogeneous suspension solution with a final concentration of 2 mg/mL. The dosing vehicle was 1% HPMC.
4 female Balb/c mice were divided into 2 groups according to 2 mice in each group. The first group was given 2 mg/kg of the compound to be tested by intravenous injection; the second group was given 10 mg/kg of the compound to be tested by gavage.
The blood was collected from two animals at each time point by continuous blood collection. 30 μL of whole blood was collected before administration and at 0.0833, 0.25, 0.5, 1, 2 (only gavage group), 4, 6, 8 (only intravenous group), and 24 hours after administration, respectively. The whole blood was placed in an anticoagulant tube, centrifuged at 3200 g for 10 minutes at 4° C., the plasma was prepared and stored at −80° C. Drug concentration in the plasma was determined by LC/MS-MS.

T3 sequence (P50750 whole entry): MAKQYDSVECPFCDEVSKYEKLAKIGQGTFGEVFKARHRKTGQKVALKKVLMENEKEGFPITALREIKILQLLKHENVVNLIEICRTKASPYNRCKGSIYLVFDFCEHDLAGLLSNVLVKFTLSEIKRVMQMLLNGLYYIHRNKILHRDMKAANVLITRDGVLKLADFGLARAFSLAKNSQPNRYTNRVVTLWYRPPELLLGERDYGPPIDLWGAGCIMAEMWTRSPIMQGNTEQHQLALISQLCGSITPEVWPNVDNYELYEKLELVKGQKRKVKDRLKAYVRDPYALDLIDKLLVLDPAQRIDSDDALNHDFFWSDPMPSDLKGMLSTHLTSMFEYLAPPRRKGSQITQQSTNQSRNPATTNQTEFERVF
T3 sequence (O60563 whole entry partner): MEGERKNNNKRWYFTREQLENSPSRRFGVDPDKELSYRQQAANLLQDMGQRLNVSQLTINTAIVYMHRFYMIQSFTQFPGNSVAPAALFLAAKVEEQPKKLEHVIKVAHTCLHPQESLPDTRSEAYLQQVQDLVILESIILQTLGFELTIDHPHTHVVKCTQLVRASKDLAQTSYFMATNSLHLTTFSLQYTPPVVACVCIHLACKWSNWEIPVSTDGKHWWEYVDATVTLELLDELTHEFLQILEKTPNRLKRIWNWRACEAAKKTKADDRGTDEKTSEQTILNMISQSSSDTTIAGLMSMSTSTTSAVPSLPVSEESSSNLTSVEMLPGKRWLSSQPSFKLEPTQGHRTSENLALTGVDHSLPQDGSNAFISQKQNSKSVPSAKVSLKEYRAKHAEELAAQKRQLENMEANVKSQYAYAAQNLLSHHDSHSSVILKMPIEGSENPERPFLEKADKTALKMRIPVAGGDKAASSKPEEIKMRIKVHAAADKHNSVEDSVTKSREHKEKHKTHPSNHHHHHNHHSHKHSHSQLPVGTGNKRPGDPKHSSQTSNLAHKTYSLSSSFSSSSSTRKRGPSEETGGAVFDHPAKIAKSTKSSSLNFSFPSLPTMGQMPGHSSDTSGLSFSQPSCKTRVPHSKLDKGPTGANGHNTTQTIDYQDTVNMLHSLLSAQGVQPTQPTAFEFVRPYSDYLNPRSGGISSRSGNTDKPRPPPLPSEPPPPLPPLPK
T2 sequence (Q00534 whole entry): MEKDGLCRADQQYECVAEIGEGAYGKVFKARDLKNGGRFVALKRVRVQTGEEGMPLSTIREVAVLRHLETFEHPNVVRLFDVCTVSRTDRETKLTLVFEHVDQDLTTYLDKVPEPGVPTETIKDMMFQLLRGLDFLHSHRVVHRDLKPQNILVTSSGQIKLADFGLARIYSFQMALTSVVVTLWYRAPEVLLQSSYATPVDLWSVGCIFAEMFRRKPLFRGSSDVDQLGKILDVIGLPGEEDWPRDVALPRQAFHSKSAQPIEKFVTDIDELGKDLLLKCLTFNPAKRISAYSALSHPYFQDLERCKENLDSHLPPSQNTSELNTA
T2 sequence (P24385 whole entry partner): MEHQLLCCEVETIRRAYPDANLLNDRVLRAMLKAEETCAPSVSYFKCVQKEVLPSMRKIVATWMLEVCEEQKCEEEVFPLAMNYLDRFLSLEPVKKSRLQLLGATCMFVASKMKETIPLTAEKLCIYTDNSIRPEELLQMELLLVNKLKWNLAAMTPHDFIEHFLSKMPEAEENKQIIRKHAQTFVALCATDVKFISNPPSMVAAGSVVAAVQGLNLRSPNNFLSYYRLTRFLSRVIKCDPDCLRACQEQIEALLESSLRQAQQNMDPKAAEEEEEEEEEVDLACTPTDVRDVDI

As for `C[C@@]1(O)CCC[C@H]1N1C(=O)CCc2cnc(NC3CCN(S(C)(=O)=O)CC3)nc21` [Compound 1A], the IC50 at CDK2/CyclinE1 is 1.19 nM; on CDK6/CyclinD1, 1.5 nM; at CDK9/CyclinT1, 110 nM. The clearance in data set [1] (Intravenous Injection: 2 mg/kg, read-out: Clearance Rate Cl) is 36.9 mL/min/kg. Also, the half-life in data set [1] (Intravenous Injection: 2 mg/kg, read-out: Half-Life T1/2 (converted)) is 16.8 min. The bioavailability in data set [1] (Oral Administration: 10 mg/kg, read-out: Oral Bioavailability F) is 31.4%. Also, the AUC(0-t) in data set [1] (Oral Administration: 10 mg/kg, read-out: Oral Exposure AUC0-t) is 3.37 µM·h.
